Data reported in patent US11149008B2, “Sulfamide derivatives and preparation method and use thereof” (HitGen Ltd., priority 2015, dated 2021).
pEC50, pIC50: −log10 of the molar value.

How the values were obtained:
HCT-116 cells = assay: Cell growth inhibition measurement (CCK-8), HCT-116; assay type: cell-based; settings: Homo sapiens, HCT-116, 72 h, highest EC50 measured during one or multiple operations, read-out: Inhibition activity against cancer cells, HCT-116 (EC50)
Source text: (§1) A HepG2 cell strain and an HCT-116 cell strain were purchased from Shanghai Institutes for Biological Sciences; a DMEM high-sugar culture medium and an MEM culture medium were purchased from Hyclone; fetal calf serum was purchased from Gibco; trypsin was purchased from Invitrogen Shanghai; a CCK-8 kit was purchased from Beyotime Institute of Biotechnology; and, the remaining cell culture mediums and other consumables were purchased from Corning China.
(§2) HepG2 cells and HCT-116 cells in the logarithmic growth phase were digested by trypsin. After the counting of uniform cell suspension, the cell density was adjusted as 1500 cells/well by a culture medium containing 10% serum. The cells were re-inoculated to a 96-well cell culture plate, and cultured to a volume of 200 μL at 37° C. in an incubator containing 5% CO2. The cells could be tested after being cultured for 24 h.
(§3) The cells cultured for 24 h were taken out from the incubator. The culture liquid in the well plate was sucked out, and 200 μL of compound solution prepared in the culture medium containing 10% fetal calf serum was added in each well. Five parallel mediums were provided for each concentration, and a DMSO culture medium was used as negative control. The culture mediums were cultured for 72 h at 37° C. in an incubator containing 5% CO2, and CCK-8 detection was performed.
(§4) A serum-free culture medium and CCK-8 solution were prepared, and CCK-8 working solution was prepared at a ratio of 10:1 (this process should be performed in dark place).
(§5) The cells cultured for 72 h were taken out from the incubator. The culture liquid in the well plate was sucked out, and 120 μL of the CCK-8 working solution was added in each well. A well plate without cells was also added with 120 μL of the CCK-8 working solution to serve as blank control. The well plates were cultured for 1 h at 37° C. in an incubator containing 5% CO2 (this process should be performed in dark place).
(§6) The well plates were taken out from the incubator, 100 μL of solution in each well was sucked out and added in a new 96-well plate, and the absorbance was measured at 450 nm (this process should be performed in dark place).
(§7) where Tx is the absorbance of the CCK-8 after the compound acts for 72 h;
(§8) C is the absorbance of the CCK-8 after the negative control wells are cultured for 72 h; and
(§9) B is the absorbance of the CCK-8 in the blank control wells.
(§10) The test results of the compounds prepared according to the embodiments during the measurement are shown in Table 3, wherein the measured highest EC50 of the compounds during one operation or multiple operations is classified according to the following description: […]

HepG2 cells = assay: Cell growth inhibition measurement (CCK-8), HepG2; assay type: cell-based; settings: Homo sapiens, HepG2, 72 h, highest EC50 measured during one or multiple operations, read-out: Inhibition activity against cancer cells, HepG2 (EC50)
Source text: as §1, §2, §3, §4, §5, §6, §7, §8, §9, §10

HDAC 1 = HDAC 1 (Homo sapiens, UniProt Q13547); assay: Enzyme activity detection of histone deacetylase 1 (fluorogenic substrate deacetylation); assay type: biochemical; settings: 0.28 ng/μL HDAC 1, 10 μM substrate; IC50 class
HDAC 1, sequence (Q13547 whole entry, species assumed): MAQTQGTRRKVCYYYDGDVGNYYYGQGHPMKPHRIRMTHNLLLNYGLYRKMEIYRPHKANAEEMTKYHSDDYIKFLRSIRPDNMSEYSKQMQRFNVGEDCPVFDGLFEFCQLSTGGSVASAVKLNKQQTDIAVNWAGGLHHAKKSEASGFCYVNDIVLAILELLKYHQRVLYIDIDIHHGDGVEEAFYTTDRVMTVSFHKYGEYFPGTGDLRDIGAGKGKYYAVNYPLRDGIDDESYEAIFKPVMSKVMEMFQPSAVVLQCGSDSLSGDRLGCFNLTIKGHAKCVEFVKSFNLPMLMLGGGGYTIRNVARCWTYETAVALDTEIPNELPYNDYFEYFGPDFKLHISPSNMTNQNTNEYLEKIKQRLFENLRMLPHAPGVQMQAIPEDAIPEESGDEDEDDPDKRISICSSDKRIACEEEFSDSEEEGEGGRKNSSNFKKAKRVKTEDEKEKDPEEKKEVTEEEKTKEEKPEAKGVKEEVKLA
Source text: During the deacetylation detection of a substrate, the HDAC inhibition activity of the compound of the present invention was detected.
C: Enzyme Activity Detection of Histone Deacetylase 1
Acetyl on the substrate was removed by the HDAC 1, so that the substrate was activated, and the developing liquid added subsequently could act on the substrate to release the fluorescent group. The size of the fluorescence signal reflected the activity of the HDAC 1. The IC50 detection method for this enzyme was disclosed in Chuping Xu, Elisabetta Soragni Improved Histone Deacetylase Inhibitors as Therapeutics for the Neurdegenerative Disease Friedreich's Ataxia: A New Synthetic Route. The total reaction system (100 μL/well) contained 0.28 ng/μL of HDAC 1, 10 μM of the substrate and the compound in different concentrations. The fluorescence signal was detected online at Ex/Em=360/460. The inhibition effect of the compound was determined from the obtained data, a concentration response curve was obtained by using the inhibition effect and the concentration of the compound, and the value of IC50 was fitted according to a four-parameter model.
The activities of the compounds prepared in the embodiments against the histone deacetylases 1, 3 and 6 (i.e., HDAC 1, HDAC 3 and HDAC 6) were detected by the above methods, and the test results were shown in Table 2, where the measurements of IC50 of the compounds were classified according to the following description: […]

pEC50 (HCT-116 cells)	pEC50 (HepG2 cells)	pIC50 (HDAC 1)	Structure (SMILES)
> 7.00	> 7.00	–	CN1CCN(Cc2ccc(-c3ccc(S(=O)(=O)N4CC=C(C(=O)NO)CC4)cc3)cc2)CC1 [Compound 20, N-hydroxyl-1-((4′-((4-methylpiperazine-1-yl)methyl)-[1,1′-biphenyl]-4-yl)sulfonyl)-1,2,3,6-tetrahydropyridazole-4-formamide]
> 7.00	> 7.00	> 7.00	CN(C)Cc1ccc(-c2ccc(S(=O)(=O)N3CC=C(C(=O)NO)CC3)cc2)cc1 [Compound 8, N-hydroxyl-1((4′-((dimethylamino)methyl)-[1, 1′-biphenyl]-4-yl)sulfonyl)-1,2,3,6-tetrahydropyridine-4-formamide]
–	> 7.00	–	CC1CN(c2ccc(-c3ccc(S(=O)(=O)N4CC=C(C(=O)NO)CC4)cc3)cc2)CCN1C (stereo not shown) [Compound 9, N-hydroxyl-1-((4′-(3,4′-dimethylpiperazine-1-yl)-[1,1′-biphenyl]-4-yl)sulfonyl)-1,2,3,6-tetrahydropyridine-4-formamide]
> 7.00	> 7.00	> 7.00	CCN(CC)Cc1ccc(-c2ccc(S(=O)(=O)N3CC=C(C(=O)NO)CC3)cc2)cc1 [Compound 18, N-hydroxyl-1-((4′-((diethylamino)methyl)-[1,1′-biphenyl]-4-yl)sulfonyl)-1,2,3,6-tetrahydropyridine-4-formamide]
> 7.00	> 7.00	–	CN1CCN(c2ccc(-c3ccc(S(=O)(=O)N4CC=C(C(=O)NO)CC4)cc3F)cc2)CC1 [Compound 7, N-hydroxyl-1-((2-fluoro-4′-(4-methylpiperazine-1-yl)-[1,1′-biphenyl]-4-yl)sulfonyl)-1,2,3,6-tetrahydropyridine-4-formamide]
–	> 7.00	–	CN1CCCN(c2ccc(-c3ccc(S(=O)(=O)N4CC=C(C(=O)NO)CC4)cc3)cn2)CC1 [Compound 24, N-hydroxyl-1-((4-(6-(4-methyl-1,4-diazaheptane-1-yl)pyridine-3-yl)phenyl)sulfonyl)-1,2,3,6-tetrahydropyridine-4-formamide]
> 7.00	> 7.00	> 7.00	CN1CCN(c2ccc(-c3ccc(S(=O)(=O)N4CC=C(C(=O)NO)CC4)cn3)cc2)CC1 [Compound 13, N-hydroxyl-1-((6-(4-(4-methylpiperazine-1-yl)phenyl)pyridine-3-yl)sulfonyl)-1,2,3,6-tetrahydropyridine-4-formamide]
–	< 7.00	–	CN1CCC(n2cc(-c3ccc(S(=O)(=O)N4CC=C(C(=O)NO)CC4)cc3)cn2)CC1 [Compound 14, N-hydroxyl-1-((4-(1-(1-methylpiperidine-4-yl)-1H-pyrazol-4-yl)phenyl)sulfonyl)-1,2,3,6-tetrahydropyridine-4-formamide]
–	< 7.00	–	CN(C)CCNC(=O)c1ccc(-c2ccc(S(=O)(=O)N3CC=C(C(=O)NO)CC3)cc2)cc1 [Compound 22, N-hydroxyl-1-((4′-((2-(dimethylamino)ethyl)aminoformyl)-[1,1′-biphenyl]-4-yl)sulfonyl)-1,2,3,6-tetrahydropyridine-4-formamide]
–	> 7.00	–	COCCN1CCN(c2ccc(-c3ccc(S(=O)(=O)N4CC=C(C(=O)NO)CC4)cc3)cc2)CC1 [Compound 4, N-hydroxyl-1-((4′-(4-(2-methoxyethyl)piperazine-1-yl)-[1,1′-biphenyl]-4-yl)sulfonyl)-1,2,3,6-tetrahydropyridine-4-formamide]
–	< 7.00	–	COCCN1CCN(c2ccc(-c3ccc(S(=O)(=O)N4CC=C(C(=O)NO)CC4)cc3)cn2)CC1 [Compound 17, N-hydroxyl-1-((4-(6-(4-(2-methoxyethyl)piperazine-1-yl)pyridine-3-yl)phenyl)sulfonyl)-1,2,3,6-tetrahydropyridine-4-formamide]
–	> 7.00	–	O=C(NO)C1=CCN(S(=O)(=O)c2ccc(-c3ccc(N4CCNCC4)cc3)cc2)CC1 [Compound 10, N-hydroxyl-1-((4′-(piperazine-1-yl)-[1,1′-biphenyl]-4-yl)sulfonyl)-1,2,3,6-tetrahydropyridine-4-formamide]
–	> 7.00	–	CN1CCN(c2ccc(-c3ccc(S(=O)(=O)N4CC=C(C(=O)NO)CC4)cc3)cn2)CC1 [Compound 5]
> 7.00	> 7.00	> 7.00	CCN1CCN(c2ccc(-c3ccc(S(=O)(=O)N4CC=C(C(=O)NO)CC4)cc3)cc2)CC1 [Compound 6]
> 7.00	> 7.00	–	O=C(NO)C1=CCN(S(=O)(=O)c2ccc(-c3ccc(CN4CCOCC4)cc3)cc2)CC1 [Compound 21, N-hydroxyl-1-((4′-(morpholinylmethyl)-[1,1′-biphenyl]-4-yl)sulfonyl)-1,2,3,6-tetrahydropyridine-4-formamide]
> 7.00	> 7.00	> 7.00	CN(C)CCc1ccc(-c2ccc(S(=O)(=O)N3CC=C(C(=O)NO)CC3)cc2)cc1 [Compound 12, N-hydroxyl-1-((4′-(2-(dimethylamino)ethyl)-[1, 1′-biphenyl]-4-yl)sulfonyl)-1,2,3,6-tetrahydropyridine-4-formamide]
–	> 7.00	–	CN1CCN(c2ccc(-c3ccc(S(=O)(=O)N4CC=C(C(=O)NO)CC4)cc3)cc2F)CC1 [Compound 3, N-hydroxyl-1-((3′-fluoro-4′-(4-methylpiperazine-1-yl)-[1,1′-biphenyl]-4-yl)sulfonyl)-1,2,3,6-tetrahydropyridine-4-formamide]
> 7.00	> 7.00	> 7.00	CN1CCN(c2ccc(-c3ccc(S(=O)(=O)N4C=CC(C(=O)NO)CC4)cc3)cc2)CC1 (stereo not shown) [Compound 15, N-hydroxyl-1-((4′-(4-methylpiperazine-1-yl)-[1, 1′-biphenyl]-4-yl)sulfonyl)-1,2,3,4-tetrahydropyridine-4-formamide]
–	> 7.00	–	O=C(NO)C1=CCN(S(=O)(=O)c2ccc(-c3ccc(N4CCN(C5CC5)CC4)cc3)cc2)CC1 [Compound 11, N-hydroxyl-1-((4′-(4-cyclopropylpiperazine-1-yl)-[1,1′-biphenyl]-4-yl)sulfonyl)-1,2,3,6-tetrahydropyridine-4-formamide]
